Data reported in patent publication US20260373266A1, “PROTEIN DEGRADERS AND USES THEREOF” (KYMERA THERAPEUTICS, INC., priority 2022, published 2026).

Biological target: T1, DCAF1 WD40 domain (residues 1077-1390) (Homo sapiens, UniProt Q9Y4B6)
T1 construct: DCAF1 WD40 domain (residues 1077-1390)
Assay: DCAF1 binding assay by SPR (Biacore 8K+), DCAF1-3 KD
Conditions: 25 °C, read-out: DCAF1-3 SPR (KD)

T1 sequence (Q9Y4B6 1077-1390): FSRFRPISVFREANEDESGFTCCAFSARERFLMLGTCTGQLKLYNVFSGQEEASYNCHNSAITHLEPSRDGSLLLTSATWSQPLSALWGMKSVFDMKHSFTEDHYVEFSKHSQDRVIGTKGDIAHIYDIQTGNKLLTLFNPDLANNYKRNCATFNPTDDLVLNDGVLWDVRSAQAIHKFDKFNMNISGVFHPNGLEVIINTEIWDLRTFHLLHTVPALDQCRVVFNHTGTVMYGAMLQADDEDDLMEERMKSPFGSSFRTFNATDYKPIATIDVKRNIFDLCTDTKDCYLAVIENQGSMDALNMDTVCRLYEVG

`NS(=O)(=O)[C@@H]1[C@H](Nc2cc(N3CCOCC3)ccn2)CCCN1c1cccc(F)c1` [I-283] and `O=C(O)[C@@H]1[C@H](Nc2cc(N3CCOCC3)ccn2)CCCN1c1cccc(F)c1` [I-287] cannot be ordered by Kd: > 200 µM for the first, > 200 µM for the second.

First: NC(=O)C[C@H](NC(=O)c1cn[nH]c1-c1cc(CCC(=O)O)ccc1F)c1cccc(Cl)c1 [I-284]
Second: NC(=O)C[C@H](NC(=O)c1cn[nH]c1-c1cc(CC(=O)O)ccc1F)c1cccc(Cl)c1 [I-285]
The Kd of the first is lower: 10 to 100 µM for the first, 100 to 200 µM for the second.

`O=C(O)CN(c1cc(N2CCOCC2)ccn1)[C@@H]1CCCN(c2cccc(F)c2)C1` [I-286] and `O=C(O)CCN(c1cc(N2CCOCC2)ccn1)[C@@H]1CCCN(c2cccc(F)c2)C1` [I-288] cannot be ordered by Kd: > 200 µM for the first, > 200 µM for the second.

`N#CCCN(c1cc(N2CCOCC2)ccn1)[C@@H]1CCCN(c2cccc(F)c2)C1` [I-289] and `Fc1cccc(N2CCC[C@@H](N(CCC(F)F)c3cc(N4CCOCC4)ccn3)C2)c1` [I-290] cannot be ordered by Kd: > 200 µM for the first, > 200 µM for the second.

`NC(=O)CCN(c1cc(N2CCOCC2)ccn1)[C@@H]1CCCN(c2cccc(F)c2)C1` [I-291] and `CS(=O)(=O)CCN(c1cc(N2CCOCC2)ccn1)[C@@H]1CCCN(c2cccc(F)c2)C1` [I-292] cannot be ordered by Kd: > 200 µM for the first, > 200 µM for the second.

Compared with `NC(=O)C[C@H](NC(=O)c1c[nH]nc1-c1cc(-c2nnn[nH]2)ccc1F)c1cccc(Cl)c1` [I-293], `NC(=O)C[C@H](NC(=O)c1c[nH]nc1-c1ccccc1O)c1cccc(Cl)c1` [I-334] is lower in Kd: > 200 µM for the first, 10 to 100 µM for the second. The second binds more tightly here.

`NC(=O)C[C@@](NC(=O)c1c[nH]nc1-c1ccccc1F)(C(=O)O)c1cccc(Cl)c1` [I-294] and `NC(=O)C[C@](CC(=O)O)(NC(=O)c1c[nH]nc1-c1ccccc1F)c1cccc(Cl)c1` [I-295] cannot be ordered by Kd: > 200 µM for the first, > 200 µM for the second.

`Fc1cccc(N2CCCC(Nc3cc(N4CCOCC4)ccn3)C23CC(F)(F)C3)c1` (stereo not shown) [I-296] and `Fc1cccc(N2CCCC(N(c3cc(N4CCOCC4)ccn3)C(F)(F)F)C2)c1` (stereo not shown) [I-305] cannot be ordered by Kd: > 200 µM for the first, > 200 µM for the second.

`NC(=O)C[C@H](NC(=O)c1n[nH]c2ccccc12)c1cccc(Cl)c1` [I-297] and `C=CC(=O)Nc1ccc2c(C(=O)N[C@@H](CC(N)=O)c3cccc(Cl)c3)n[nH]c2c1` [I-301] cannot be ordered by Kd: > 200 µM for the first, > 200 µM for the second.

`NC(=O)C[C@H](NC(=O)c1n[nH]c2c1CNCC2)c1cccc(Cl)c1` [I-298] and `NC(=O)C[C@H](NC(=O)c1n[nH]c2c1NCCC2)c1cccc(Cl)c1` [I-299] cannot be ordered by Kd: > 200 µM for the first, > 200 µM for the second.

`C=CC(=O)N1CCc2[nH]nc(C(=O)N[C@@H](CC(N)=O)c3cccc(Cl)c3)c2C1` [I-300] and `C=CC(=O)Nc1ccc2[nH]nc(C(=O)N[C@@H](CC(N)=O)c3cccc(Cl)c3)c2c1` [I-302] cannot be ordered by Kd: > 200 µM for the first, > 200 µM for the second.

`O=c1cc(N2CCOCC2)cc(N[C@@H]2CCCN(c3cccc(F)c3)C2)[nH]1` [I-303] and `Oc1ccc(N2CCOCC2)cc1N[C@@H]1CCCN(c2cccc(F)c2)C1` [I-325] cannot be ordered by Kd: > 200 µM for the first, > 200 µM for the second.

`CS(=O)(=O)N(c1cc(N2CCOCC2)ccn1)[C@@H]1CCCN(c2cccc(F)c2)C1` [I-304] and `Fc1cccc(N2CCC[C@@H](N(c3cccnc3)c3cc(N4CCOCC4)ccn3)C2)c1` [I-306] cannot be ordered by Kd: > 200 µM for the first, > 200 µM for the second.

`Fc1cccc(N2CCC[C@@H](N(c3ccncc3)c3cc(N4CCOCC4)ccn3)C2)c1` [I-307] and `Fc1cccc(N2CCC[C@@H](N(CCc3ccccc3)c3nccc(N4CCOCC4)n3)C2)c1` [I-323] cannot be ordered by Kd: > 200 µM for the first, > 200 µM for the second.

Compared with `C=CC(=O)Nc1n[nH]cc1C(=O)N[C@@H](CC(N)=O)c1cccc(Cl)c1` [I-308], `NC(=O)C[C@H](NC(=O)c1c[nH]nc1-c1ccccn1)c1cccc(Cl)c1` [I-335] is lower in Kd: > 200 µM for the first, 10 to 100 µM for the second.

`Fc1cccc(N2CCC[C@@H](Nc3cc(N4C[C@H]5CCC4CO5)ncn3)C2)c1` [I-309] and `Fc1cccc(N2CCC[C@@H](Nc3cc(N4C[C@H]5C[C@@H]4CO5)ncn3)C2)c1` [I-310] cannot be ordered by Kd: > 200 µM for the first, > 200 µM for the second.

`Fc1cccc(N2CCC[C@@H](Nc3cc(N4C[C@H]5C[C@@H](C4)O5)ncn3)C2)c1` [I-311] and `Fc1cccc(N2CCC[C@@H](Nc3cc(N4C[C@@H]5C[C@H]4CO5)ncn3)C2)c1` [I-312] cannot be ordered by Kd: > 200 µM for the first, > 200 µM for the second.

`Fc1cccc(N2CCC[C@H](Nc3cc(N4CCOCC4)ncn3)C2)c1` [I-313] and `Fc1cccc(N2CCC[C@@H](Nc3cc(N4CCOCC4)[nH]n3)C2)c1` [I-329] cannot be ordered by Kd: > 200 µM for the first, > 200 µM for the second.

Compared with `Fc1cccc(N2CCC[C@@H](Nc3nccc(N4CCNCC4)n3)C2)c1` [I-314], `Fc1cccc(N2CCC[C@@H](Nc3nccc(N4CCCCC4)n3)C2)c1` [I-319] is lower in Kd: > 200 µM for the first, 100 to 200 µM for the second. The second binds more tightly here.

`CN1CCN(c2ccnc(N[C@@H]3CCCN(c4cccc(F)c4)C3)n2)CC1` [I-315] and `CCN1CCN(c2ccnc(N[C@@H]3CCCN(c4cccc(F)c4)C3)n2)CC1` [I-316] cannot be ordered by Kd: > 200 µM for the first, > 200 µM for the second.

First: CCCN1CCN(c2ccnc(N[C@@H]3CCCN(c4cccc(F)c4)C3)n2)CC1 [I-317]
Second: COCCN1CCN(c2ccnc(N[C@@H]3CCCN(c4cccc(F)c4)C3)n2)CC1 [I-320]
The Kd of the first is higher: > 200 µM for the first, 10 to 100 µM for the second. The second binds more tightly here.

`CCCCN1CCN(c2ccnc(N[C@@H]3CCCN(c4cccc(F)c4)C3)c2)CC1` [I-318] and `Fc1cccc(N2CCC[C@@H](Nc3ccnc(N4CCOCC4)n3)C2)c1` [I-321] cannot be ordered by Kd: > 200 µM for the first, > 200 µM for the second.

`Fc1cccc(N2CCCC(n3cnc4nccc(N5CCOCC5)c43)C2)c1` (stereo not shown) [I-324] and `Fc1cccc(N2CCC[C@@H](Nc3ncc(N4CCOCC4)o3)C2)c1` [I-327] cannot be ordered by Kd: > 200 µM for the first, > 200 µM for the second.

`Fc1cccc(N2CCC[C@@H](Nc3nc(N4CCOCC4)c[nH]3)C2)c1` [I-326] and `Fc1cccc(N2CCC[C@@H](Nc3ncc(N4CCOCC4)s3)C2)c1` [I-328] cannot be ordered by Kd: > 200 µM for the first, > 200 µM for the second.

`COCCc1[nH]nc(C(=O)N[C@@H](CC(N)=O)c2cccc(Cl)c2)c1-c1ccccc1F` [I-330] and `Cc1cccc(C(CC(N)=O)NC(=O)c2cn[nH]c2-c2ccccc2F)c1` (stereo not shown) [I-331] cannot be ordered by Kd: > 200 µM for the first, > 200 µM for the second.

Compared with `NC(=O)C[C@H](NC(=O)c1cn[nH]c1-c1cccc(O)c1)c1cccc(Cl)c1` [I-332], `N#Cc1cccc(-c2[nH]ncc2C(=O)N[C@@H](CC(N)=O)c2cccc(Cl)c2)c1` [I-337] is lower in Kd: 10 to 100 µM for the first, < 10 µM for the second. The second binds more tightly here.

`NC(=O)C[C@H](NC(=O)c1cn[nH]c1-c1ccc(O)cc1)c1cccc(Cl)c1` [I-333] and `NC(=O)C[C@H](NC(=O)c1cn[nH]c1-c1ccncc1)c1cccc(Cl)c1` [I-336] fall in the same range of Kd: 10 to 100 µM for the first, 10 to 100 µM for the second.

Compared with `N#Cc1ccccc1-c1[nH]ncc1C(=O)N[C@@H](CC(N)=O)c1cccc(Cl)c1` [I-338], `N#Cc1ccccc1[C@H](CC(N)=O)NC(=O)c1cn[nH]c1-c1ccccc1F` [I-342] is higher in Kd: < 10 µM for the first, 10 to 100 µM for the second.

`NC(=O)C[C@H](NC(=O)c1cn[nH]c1-c1ccccc1F)c1ccccc1O` [I-339] and `NC(=O)C[C@H](NC(=O)c1cn[nH]c1-c1ccccc1F)c1ccccn1` [I-340] cannot be ordered by Kd: > 200 µM for the first, > 200 µM for the second.

Going from `NC(=O)C[C@H](NC(=O)c1cn[nH]c1-c1ccccc1F)c1ccncc1` [I-341] to `NC(=O)C[C@H](NC(=O)c1cn[nH]c1C1CCOCC1)c1cccc(Cl)c1` [I-344], the Kd falls from > 200 µM to < 10 µM.

`NC(=O)C[C@H](NC(=O)c1cn[nH]c1[C@H]1CCCOC1)c1cccc(Cl)c1` [I-345] and `NC(=O)C[C@H](NC(=O)c1cn[nH]c1[C@@H]1CCCOC1)c1cccc(Cl)c1` [I-346] cannot be ordered by Kd: > 200 µM for the first, > 200 µM for the second.

`NC(=O)C[C@H](NC(=O)c1cn[nH]c1[C@@H]1CCCCO1)c1cccc(Cl)c1` [I-347] and `NC(=O)C[C@H](NC(=O)c1cn[nH]c1[C@H]1CCCCO1)c1cccc(Cl)c1` [I-348] cannot be ordered by Kd: > 200 µM for the first, > 200 µM for the second.
